Measurements taken from patent publication US11229628B2, “TRPA1 and TRPV4 inhibitors and methods of using the same for organ-specific inflammation and itch” (Duke University, priority 2015, dated 2022).
Entries after “also recorded” stand apart in the source; their conditions may differ. Where a SMILES comes first, the peptide text is derived from it. [ ]: non-standard residue; d: D form.

Assays:
[1] = tested on: primary mouse epidermal keratinocytes (1° MK); assay: UVB-evoked Ca++ signaling in primary mouse keratinocytes (fluo-4 imaging); format: cell-based; settings: for UVB-evoked Ca++ signaling: fluo-4 ΔF/F0, GSK205 20 μM; for ET1-augmented UVB-evoked Ca++ signaling: UVB and ET1 co-exposure
Description: Ca++ imaging of 1° MK was conducted following routine procedures. For UVB stimulation, a customized device was built. The system comprised a printed circuit board for electrical interconnects and mechanical support and an ultraviolet light-emitting diode (UV LED).
The operating wavelength was 295 nm (FIG. 2A), with a full-width half-max of 12 nm. The optical power was 500 mW. The focal point was aimed at the plane of the upper surface of the quartz coverslip, which was used to minimize UV absorption along the optical path towards the cells (FIG. 2A-C). The optical intensity at the focal point was estimated to be 150 mW/mm^2.
(§1) Ca++ imaging of mouse 1° MK in response to chemical activation of TRPV4 was conducted after loading with 2 μM fura2-AM, following a ratiometric Ca2+ imaging protocol with 340/380 nm […] for dual excitation. Ratios of emissions were acquired at 0.5 Hz. ΔR/R0 was determined as the fraction of the increase of a given ratio over baseline ratio, divided by baseline ratio. For stimulation of cells with UVB, where fura-2 was not suitable because of the proximity of stimulation with 340/380 nm and 295 nm, 2 μM fluo4-AM was used instead. Ca++ imaging was carried out at 488 nm excitation, acquisition of emissions at 0.5 Hz, expressed as ΔF/F0. In the custom-built UV optical system, UV LEDs were capped with a ball lens, a transparent optical window in the shape of a hemispherical lens (FIG. 2B). The LED output optical beam focused at 15-20 mm from the lens, with a spot diameter of approximately 1.5˜2.0 mm (FIG. 2C). […] The thermal equilibration stage was set for physiological temperature.
To further dissect the underlying mechanisms involved, we built a customized device for specific and narrow-band UVB stimulation of primary mouse epidermal keratinocytes (1° MK) cultured in vitro (FIG. 6A-B and FIG. 2A-D). This allowed use of the Ca++ sensitive dye, fluo-4, and assessment of 1° MK's Ca++ dynamics following UVB exposure (FIG. 6B). The elicited Ca++ signal was obliterated by a UV-refracting glass coverslip, underscoring the strict dependence of the calcium response on UVB (FIG. 6C and FIG. 2A).

[2] = tested on: ET1 expression in 1° MK; assay: ET1 expression by UVB-exposed 1° MK (immunocytochemistry); format: cell-based, mouse; settings: 295 nm UVB-LED, 24 hours
Description: 1° MK were exposed to UVB using the UV optical system (295 nm LED). 24 hours later the cells were fixed and fluorescently immunolabeled for ET1. Digital images were captured and subjected to morphometry.
Mouse keratinocytes were cultured on collagen coated quartz coverslips and then stimulated from the bottom using the previously mentioned UV optical system using the 295 nm LED. 24 hours later the cells were fixed in 4% formaldehyde in PBS for 20 minutes, permeabilized with 0.1% Triton X-100 in PBS for 10 minutes, washed, then blocked in 10% normal goat serum in PBS for 45 minutes. Coverslips were incubated overnight with primary antibody mouse anti-ET1 (1:200; Abcam), washed three times in PBS and incubated with secondary antibody for 2 hours at 25° C. Coverslips were washed three times in PBS, once with double-distilled H2O. Digital images were captured using a 40× immersion lens on the BX61 Olympus upright microscope. Morphometric analysis was conducted using ImageJ freeware with tailored regions-of-interest.
(§2) We tested whether UVB causes ET1 upregulation in a TRPV4-dependent manner. Given the exquisite wave-length dependence of ET1 expression in 1° MKs, we resorted to the UVB-LED device as for Ca++ imaging (FIG. 6A and FIG. 2A-D). […] Consistent with its effects on UVB-evoked Ca++ transients, PLC-inhibitor U73122 also dampened ET1 expression. […] This leads to TRPV4-dependent Ca++ signaling, which in turn amplifies ET1 signaling in a paracrine/autocrine fashion.

[3] = tested on: ET1 secretion by 1° MK; assay: ET1 secretion by non-stimulated 1° MK (ELISA of supernatant); format: cell-based, mouse
Description: FIG. 8: Central role for KC TRPV4 in UVB-evoked Ca^++ signaling and nocifensive behavior—ET1-related supplementary findings. (A) Augmentation of GSK101-evoked Ca^++ signaling by ET1. Shown are averaged Ca^++ measurements (fura-2) in response to 5 nM GSK101. […] (B) ET1 secretion by non-stimulated 1° MK depends on TRPV4 and PLC. Shown are relative ET1 concentrations (determined by ELISA, pg/mL; vehicle-treated and WT control normalized to 100) in supernatant of non-stimulated 1° MK. Note the clear dependence on TRPV4, as indicated by a 50% reduction in Trpv4^−/− 1° MK. […] In addition, PLC-inhibitor robustly affects ET1 secretion in WT and Trpv4^−/− 1° MK. (C) ET1 expression by UVB-exposed 1° MK depends on TRPV4 and PLC—immunocytochemistry. Shown is specific ET1 immunolabeling in 1° MK, exposed to UVB using the UVB-LEDs, as for Ca^++ imaging. Use of the UVB-LED device precluded application of a ET1 ELISA, only irradiated cells could be examined. […] (D) ET1 expression by UVB-exposed 1° MK depends on TRPV4 and PLC—quantification of immunocytochemistry.
as §2

[4] = target: T1, TRPV4 (Mus musculus, UniProt Q9EPK8); assay: GSK101-evoked Ca++ transient in 1° MK (fura-2); format: cell-based; settings: 5 nM GSK101
T1 construct: Primary mouse keratinocytes were derived from back skin of newborn mice; endogenous in cells; host or cells: primary mouse epidermal keratinocytes (1° MK), wild type
T1 sequence (Q9EPK8 whole entry): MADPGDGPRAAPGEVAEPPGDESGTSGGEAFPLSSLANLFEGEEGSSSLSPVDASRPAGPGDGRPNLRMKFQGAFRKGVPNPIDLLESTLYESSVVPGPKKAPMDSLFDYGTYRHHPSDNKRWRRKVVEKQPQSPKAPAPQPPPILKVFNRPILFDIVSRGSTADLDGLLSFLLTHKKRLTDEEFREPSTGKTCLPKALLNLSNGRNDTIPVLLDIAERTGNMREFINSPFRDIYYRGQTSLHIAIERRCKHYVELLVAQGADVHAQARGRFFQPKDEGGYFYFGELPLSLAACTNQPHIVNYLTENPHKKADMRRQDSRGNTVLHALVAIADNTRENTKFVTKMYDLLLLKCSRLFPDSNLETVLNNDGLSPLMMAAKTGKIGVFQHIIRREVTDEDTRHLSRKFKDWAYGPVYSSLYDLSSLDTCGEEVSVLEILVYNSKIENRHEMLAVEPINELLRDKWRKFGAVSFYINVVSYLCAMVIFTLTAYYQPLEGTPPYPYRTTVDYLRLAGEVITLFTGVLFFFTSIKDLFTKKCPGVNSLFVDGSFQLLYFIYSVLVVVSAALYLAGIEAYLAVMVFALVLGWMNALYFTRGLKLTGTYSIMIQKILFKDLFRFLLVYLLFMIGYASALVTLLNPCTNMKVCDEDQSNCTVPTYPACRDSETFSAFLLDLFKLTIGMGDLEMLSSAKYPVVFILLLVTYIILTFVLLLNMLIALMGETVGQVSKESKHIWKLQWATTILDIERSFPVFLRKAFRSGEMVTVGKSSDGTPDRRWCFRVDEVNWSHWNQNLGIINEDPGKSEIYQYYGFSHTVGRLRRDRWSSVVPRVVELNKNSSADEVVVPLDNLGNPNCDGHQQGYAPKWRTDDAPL
Description: as §1, with “temperature. We confirmed the non-thermal nature of UVB stimulation using the customized 295 nm LED device in a dedicated experiment (FIG. 2D), thus confirming the specific modality of stimulation as UVB.” for “temperature.”
We obtained corroborating findings by chemically activating TRPV4 with GSK101, which can directly stimulate TRPV4 in WT 1° MK. […]

[5] = target: T1, TRPV4; assay: 4α-PDD-evoked Ca++ signaling in 1° MK with ET1 co-application; format: cell-based; settings: fura-2, ET1 co-application
Description: FIG. 7: Central role for keratinocyte TRPV4 in UVB-evoked Ca++ signaling and nocifensive behavior—effects of ET1. (A) Effects of ET1 on UVB-evoked Ca++ signaling in 1° MKs. […] Panel (iii) illustrates the complete elimination of the ET1-augmented Ca++ transients when both subtypes of ET(R) are blocked. (B) 4α-PDD-evoked Ca++ signaling in 1° MKs—ET1-related findings. […] Quantifications are for n=3 mice/group. *** denotes statistically significant (p<0.001, t-test). (D) Nocifensive behavior in response to ET1 footpad injection depends on epidermal TRPV4. Bar diagram summarizes behavioral findings for Trpv4−/−vs. WT and for oil-treated vs. tam-treated iKO mice. […] Trpv4−/− and tam-treated iKO mice fail to respond; n≥7 mice/group, ** p<0.01, ANOVA.
Ca++ imaging of mouse 1° MK in response to chemical activation of TRPV4 was conducted after loading with 2 μM fura2-AM, following a ratiometric Ca2+ imaging protocol with 340/380 nm […] for dual excitation. Ratios of emissions were acquired at 0.5 Hz. ΔR/R0 was determined as the fraction of the increase of a given ratio over baseline ratio, divided by baseline ratio. For stimulation of cells with UVB, where fura-2 was not suitable because of the proximity of stimulation with 340/380 nm and 295 nm, 2 μM fluo4-AM was used instead. Ca++ imaging was carried out at 488 nm excitation, acquisition of emissions at 0.5 Hz, expressed as ΔF/F0. […]

Compound	UVB-evoked Ca++ signaling [1]	ET1 immunoreactivity in UVB-exposed 1° MK [2]	ET1 secretion by non-stimulated 1° MK [3]	also measured
COc1ccc2c(c1)CC[C@@H]1[C@@H]2CC[C@]2(C)[C@@H](NCCCCCCN3C(=O)C=CC3=O)CC[C@@H]12 [Compound U73122]	virtually eliminated; also recorded: strongly reduced	dampened; also recorded: significant down-regulation	down-regulation of ET1 secretion	
endothelin-1 [ET1]	significant increase; also recorded: augmentation			GSK101-evoked Ca++ signaling on co-exposure to ET1 [4]: augmented; also recorded: increase in signal; 4α-PDD-evoked Ca++ response [5]: significant increase
CCCC[C@@H](NC(=O)[C@@H](Cc1cn(C(=O)OC)c2ccccc12)NC(=O)[C@H](CC(C)(C)C)NC(=O)N1[C@H](C)CCC[C@@H]1C)C(=O)O [BQ788]				ET1-augmented UVB-evoked Ca++ signaling [1]: attenuated
O=C(O)C(Cc1ccc2c(c1)oc1ccccc12)NCP(=O)(O)O (centres unmarked) [CGS35066]	significantly diminished; also recorded: significant attenuation	significant down-regulation	down-regulation of ET1 secretion	
CC(C)C[C@@H]1NC(=O)[C@@H](C(C)C)NC(=O)[C@@H]2CCCN2C(=O)[C@@H](CC(=O)O)NC(=O)[C@@H](Cc2c[nH]c3ccccc23)NC1=O [BQ123] (cyclo(L[dW][dD]P[dV]))				ET1-augmented UVB-evoked Ca++ signaling [1]: attenuated
C=C(C)CCO[P@@](=O)(O)OP(=O)(O)O [IPP, isopentenyl pyrophosphate]	no effect; also recorded: not inhibited			
CC(C)NCCN(C(C)C)S(=O)(=O)c1ccc(Cl)cc1Cl [RN1734]		diminished; also recorded: significant down-regulation	significant down-regulation	
